# From US20110178104A1, “Anti-Heparin Compounds” (POLYMEDIX INC., priority 2010, published 2011)
# Assays:
# fondaparinux = experiment: FXa amidolytic assay (Example 10), fondaparinux; settings: read-out: Fondap FXa EC50; fondaparinux 0.02 μg/mL; human antithrombin, bovine Factor Xa
# tinzaparin = experiment: FXa amidolytic assay (Example 10), tinzaparin; settings: read-out: Tinzap FXa EC50; tinzaparin 0.1 ug/ml; human antithrombin, bovine Factor Xa
# enoxaparin = experiment: FXa amidolytic assay (Example 10), enoxaparin; settings: read-out: Enox FXa EC50; enoxaparin 0.1 ug/ml; human antithrombin, bovine Factor Xa
# Unfractionated heparin = experiment: aPTT clotting assay, UFH 0.4 U/mL in plasma (Example 10); format: biochemical; settings: unfractionated heparin 0.4 U/mL in plasma; aPTT clotting
# Procedure: aPTT clotting Assay: Unfractionated heparin was mixed with plasma at a final concentration of 0.4 U/mL (or concentration which increases aPTT time to between 120 and 300 seconds). […] The ACL Elite Hemostasis analyzer (Beckman Coulter™) was used to add aPTT reagent (HemosIL SynthASil) to supplemented plasma. Clotting was initiated by addition of CaCl2 and time to clot was recorded.
EC50 (fondaparinux) [µM],EC50 (tinzaparin) [µM],EC50 (enoxaparin) [µM],EC50 (Unfractionated heparin) [µM],SMILES
1.58,0.138,0.198,–,COC(=O)CCCC(=O)N[C@@H](CCCCN)C(=O)Nc1ccc(OC)c(C(=O)N[C@@H](CCCCN)C(=O)Nc2ccc(OC)c(C(=O)N[C@@H](CCCCN)C(=O)Nc3ccc(OC)c(C(=O)N[C@@H](CCCCN)C(=O)Nc4ccc(OC)c(C(N)=O)c4)c3)c2)c1 [Compound 341]
4.79,–,0.45,–,COc1ccc(NC(=O)[C@H](CCCCN)NC(=O)c2cc(NC(=O)[C@H](CCCCN)NC(=O)c3cc(NC(=O)[C@H](CCCCN)NC(=O)c4cc(NC(=O)[C@H](CCCCN)NC(=N)N)ccc4OC)ccc3OC)ccc2OC)cc1C(N)=O [Compound 292]
> 10,–,> 10,–,COc1ccc(NC(=O)[C@@H](CCCCN)NC(=O)c2c(OC)ccc(NC(=O)[C@@H](CCCCN)NC(=O)c3c(OC)ccc(NC(=O)[C@@H](CCCCN)NC(=O)c4c(OC)ccc(NC(=O)[C@H](N)CCCCN)c4OC)c3OC)c2OC)c(OC)c1C(N)=O [Compound 293]
–,–,0.039,–,COc1ccc(NC(=O)[C@@H](CCCNC(=N)N)NC(=O)c2cc(NC(=O)[C@@H](CCCNC(=N)N)NC(=O)c3cc(NC(=O)[C@@H](CCCNC(=N)N)NC(=O)c4cc(NC(=O)[C@H](N)CCCNC(N)=O)ccc4OC)ccc3OC)ccc2OC)cc1C(N)=O [Compound 207]
–,–,0.283,2.99,COc1ccc(NC(=O)[C@H](CCCNC(=N)N)NC(=O)c2cc(NC(=O)[C@H](CCCCN)NC(=O)c3cc(NC(=O)[C@H](CCCCN)NC(=O)c4cc(NC(=O)[C@@H](N)CCCCN)ccc4OC)ccc3OC)ccc2OC)cc1C(N)=O [Compound 203]
–,–,–,> 10,CN(C)CCNC(=O)c1cc(C(=O)NC2CCC(NC(=O)c3cc(C(=O)NCCN(C)C)c(OCCCCCN)cc3OCCCCCN)CC2)c(OCCCCCN)cc1OCCCCCN (stereo not shown) [Compound 227]
–,–,0.398,4.55,COc1ccc(NC(=O)[C@H](CCCCN)NC(=O)c2cc(NC(=O)[C@H](CCCCN)NC(=O)c3cc(NC(=O)[C@H](C)NC(=O)c4cc(NC(=O)[C@@H](N)CCCCN)ccc4OC)ccc3OC)ccc2OC)cc1C(N)=O [Compound 202]
1.83,0.174,0.225,–,CCOC(=O)CC(=O)N[C@@H](CCCCN)C(=O)Nc1ccc(OC)c(C(=O)N[C@@H](CCCCN)C(=O)Nc2ccc(OC)c(C(=O)N[C@@H](CCCCN)C(=O)Nc3ccc(OC)c(C(=O)N[C@@H](CCCCN)C(=O)Nc4ccc(OC)c(C(N)=O)c4)c3)c2)c1 [Compound 337]
–,–,0.974,6,COc1ccc(NC(=O)[C@H](CCCCN)NC(=O)c2cc(NC(=O)[C@H](C)NC(=O)c3cc(NC(=O)[C@H](CCCCN)NC(=O)c4cc(NC(=O)[C@@H](N)CCCCN)ccc4OC)ccc3OC)ccc2OC)cc1C(N)=O [Compound 201]
–,–,0.239,3.02,COc1ccc(NC(=O)[C@H](CCCCN)NC(=O)c2cc(NC(=O)[C@H](CCCNC(=N)N)NC(=O)c3cc(NC(=O)[C@H](CCCCN)NC(=O)c4cc(NC(=O)[C@@H](N)CCCCN)ccc4OC)ccc3OC)ccc2OC)cc1C(N)=O [Compound 204]
2.87,–,0.137,5.9,COc1ccc(NC(=O)[C@@H](CCCNC(=N)N)NC(=O)c2cc(NC(=O)[C@@H](CCCNC(=N)N)NC(=O)c3cccc(NC(=O)[C@@H](CCCNC(=N)N)NC(=O)c4cc(NC(=O)[C@H](N)CCCNC(=N)N)ccc4OC)n3)ccc2OC)cc1C(N)=O [Compound 211]
–,–,0.125,5.45,COc1cc(OC)c(C(=O)N[C@H]2CC[C@H](NC(=O)c3cc(C(=O)N[C@H]4CC[C@H](NC(=O)c5cc(C(=O)NCCN(C)C)c(OC)cc5OC)CC4)c(OCCCCCNC(=N)N)cc3OCCCCCNC(=N)N)CC2)cc1C(=O)NCCN(C)C [Compound 220]
0.259,–,0.073,0.883,COc1ccc(NC(=O)[C@@H](CCCNC(=N)N)NC(=O)c2cc(NC(=O)[C@@H](CCCNC(=N)N)NC(=O)c3cc(NC(=O)[C@@H](CCCNC(=N)N)NC(=O)c4cccc(NC(=O)[C@H](N)CCCNC(=N)N)c4)ccc3OC)ccc2OC)cc1C(N)=O [Compound 212]
–,–,0.148,1.97,COc1ccc(NC(=O)[C@H](CCCCN)NC(=O)c2cc(NC(=O)[C@H](CCCCN)NC(=O)c3cc(NC(=O)[C@H](CCCCN)NC(=O)c4cc(NC(=O)[C@@H](N)CCCNC(=N)N)ccc4OC)ccc3OC)ccc2OC)cc1C(N)=O [Compound 206]
0.176,–,0.074,0.853,CCOc1ccc(NC(=O)[C@@H](CCCNC(=N)N)NC(=O)c2cc(NC(=O)[C@H](N)CCCNC(=N)N)ccc2OC)cc1C(=O)N[C@H](CCCNC(=N)N)C(=O)Nc1ccc(OC)c(C(=O)N[C@H](CCCNC(=N)N)C(=O)Nc2ccc(OC)c(C(N)=O)c2)c1 [Compound 218]
1.18,–,0.047,2.48,COc1ccc(NC(=O)[C@@H](CCCNC(=N)N)NC(=O)CCCCNC(=N)N)cc1C(=O)N[C@H](CCCNC(=N)N)C(=O)Nc1ccc(OC)c(C(=O)N[C@H](CCCNC(=N)N)C(=O)Nc2ccc(OC)c(C(=O)N[C@H](CCCNC(=N)N)C(=O)Nc3ccc(OCCNC(=N)N)c(C(N)=O)c3)c2)c1 [Compound 291]
1.4,–,0.082,2.55,COc1ccc(C(N)=O)cc1NC(=O)[C@@H](CCCNC(=N)N)NC(=O)c1cc(NC(=O)[C@@H](CCCNC(=N)N)NC(=O)c2cc(NC(=O)[C@@H](CCCNC(=N)N)NC(=O)c3cc(NC(=O)[C@H](N)CCCNC(=N)N)ccc3OC)ccc2OC)ccc1OC [Compound 210]
0.932,0.201,0.235,–,COc1ccc(NC(=O)[C@H](CCCCN)NC(=O)c2cc(NC(=O)[C@H](CCCCN)NC(=O)c3cc(NC(=O)[C@H](CCCCN)NC(=O)c4cc(NC(=O)[C@H](CCCCN)NC(=O)c5ccccc5C(=O)O)ccc4OC)ccc3OC)ccc2OC)cc1C(N)=O [Compound 343]
–,–,0.202,–,COc1ccc(NC(=O)[C@H](CCCCN)NC(=O)c2cc(NC(=O)[C@H](CCCCN)NC(=O)c3cc(NC(=O)[C@H](CCCNC(=N)N)NC(=O)c4cc(NC(=O)[C@@H](N)CCCCN)ccc4OC)ccc3OC)ccc2OC)cc1C(N)=O [Compound 205]
0.252,–,0.074,1.12,CCOc1ccc(NC(=O)[C@@H](CCCNC(=N)N)NC(=O)c2cc(NC(=O)[C@@H](CCCNC(=N)N)NC(=O)c3cc(NC(=O)[C@@H](CCCNC(=N)N)NC(=O)c4cc(NC(=O)[C@H](N)CCCNC(=N)N)ccc4OC)ccc3OC)ccc2OC)cc1C(N)=O [Compound 217]
0.288,–,0.073,2.85,COc1ccc(NC(=O)[C@H](CCCCN)NC(=O)c2cc(NC(=O)[C@H](CCCCN)NC(=O)c3cccc(NC(=O)[C@H](CCCCN)NC(=O)c4cc(NC(=O)[C@@H](N)CCCCN)ccc4OC)c3)ccc2OC)cc1C(N)=O [Compound 215]
0.432,–,0.087,1.91,COc1ccc(NC(=O)[C@H](CCCCN)NC(=O)c2cccc(NC(=O)[C@H](CCCCN)NC(=O)c3cc(NC(=O)[C@H](CCCCN)NC(=O)c4cc(NC(=O)[C@@H](N)CCCCN)ccc4OC)ccc3OC)c2)cc1C(N)=O [Compound 214]
0.354,–,0.078,0.893,COc1ccc(NC(=O)[C@H](CCCCN)NC(=O)c2cc(NC(=O)[C@H](CCCCN)NC(=O)c3cc(NC(=O)[C@@H](N)CCCCN)ccc3OC)ccc2OC)cc1C(=O)N[C@@H](CCCCN)C(=O)Nc1cccc(C(N)=O)c1 [Compound 213]
